According to PMC4450297, “Screening Active Compounds from Garcinia Species Native to China Reveals Novel Compounds Targeting the STAT/JAK Signaling Pathway” (BioMed Research International, 2015):

Legend:
Experiment in all cases: Cell panel screen (CellTiter-Glo)
Assay type in all cases: cell-based, human
A498 = A498 (listed under Lung), 20 micromolar, 72 hrs
Outline: (§1)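 ATCC lines in supplier media with 10% FBS, seeded and cultured overnight at 37° C., then exposed to compound at 20 μM final for 72 h. CellTiter-Glo luminescence; % growth inhibition relative to DMSO-treated controls after subtracting cell-free background.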

A704 = A704 (Kidney), 20 micromolar, 72 hrs
Outline: as §1

BT-474 = BT-474 (Breast), 20 micromolar, 72 hrs
Outline: as §1

BT-549 = BT-549 (Breast), 20 micromolar, 72 hrs
Outline: as §1

Bel-7402 = Bel-7402 (Liver), 20 micromolar, 72 hrs
Outline: as §1

C3A = C3A (Liver), 20 micromolar, 72 hrs
Outline: as §1

C8166 = C8166 (Leukemia), 20 micromolar, 72 hrs
Outline: as §1

CCF-STTG1 = CCF-STTG1 (Brain), 20 micromolar, 72 hrs
Outline: as §1

CW-2 = CW-2 (Colon), 20 micromolar, 72 hrs
Outline: as §1

ChaGo-K-1 = ChaGo-K-1 (Lung), 20 micromolar, 72 hrs
Outline: as §1

Colo 205 = conditions: Colo 205, 20 micromolar, 72 hrs
Outline: as §1

HCC1395 = HCC1395 (Breast), 20 micromolar, 72 hrs
Outline: as §1

HCC1569 = HCC1569 (Breast), 20 micromolar, 72 hrs
Outline: as §1

HCC1599 = HCC1599 (Breast), 20 micromolar, 72 hrs
Outline: as §1

HCC1937 = HCC1937 (Breast), 20 micromolar, 72 hrs
Outline: as §1

HEC-1-A = HEC-1-A (Uterus), 20 micromolar, 72 hrs
Outline: as §1

HGC-27 = HGC-27 (Stomach), 20 micromolar, 72 hrs
Outline: as §1

HPAF-II = HPAF-II (Pancreas), 20 micromolar, 72 hrs
Outline: as §1

HT-1197 = HT-1197 (Urinary bladder), 20 micromolar, 72 hrs
Outline: as §1

J82 = J82 (Urinary bladder), 20 micromolar, 72 hrs
Outline: as §1

M059J = M059J (Brain), 20 micromolar, 72 hrs
Outline: as §1

MSTO-211-H = MSTO-211-H (Lung), 20 micromolar, 72 hrs
Outline: as §1

NCI-H1623 = NCI-H1623 (Lung), 20 micromolar, 72 hrs
Outline: as §1

NCI-H1694 = NCI-H1694 (Lung), 20 micromolar, 72 hrs
Outline: as §1

NCI-H1770 = NCI-H1770 (Lung), 20 micromolar, 72 hrs
Outline: as §1

NCI-H2347 = NCI-H2347 (Lung), 20 micromolar, 72 hrs
Outline: as §1

NCI-H2405 = NCI-H2405 (Lung), 20 micromolar, 72 hrs
Outline: as §1

NCI-H28 = NCI-H28 (Lung), 20 micromolar, 72 hrs
Outline: as §1

NCI-H524 = NCI-H524 (Lung), 20 micromolar, 72 hrs
Outline: as §1

Panc 03.27 = Panc 03.27 (Pancreas), 20 micromolar, 72 hrs
Outline: as §1

RL95 = RL95 (Uterus), 20 micromolar, 72 hrs
Outline: as §1

SW13 = SW13 (Adrenal gland), 20 micromolar, 72 hrs
Outline: as §1

T47D = T47D (Breast), 20 micromolar, 72 hrs
Outline: as §1

T98G = T98G (Brain), 20 micromolar, 72 hrs
Outline: as §1

TCCSUP = TCCSUP (Urinary bladder), 20 micromolar, 72 hrs
Outline: as §1

ZR-75-30 = ZR-75-30 (Breast), 20 micromolar, 72 hrs
Outline: as §1

Compound | Percent Inhibition (A498) [%] | Percent Inhibition (A704) [%] | Percent Inhibition (BT-474) [%] | Percent Inhibition (BT-549) [%] | Percent Inhibition (Bel-7402) [%] | Percent Inhibition (C3A) [%] | Percent Inhibition (C8166) [%] | Percent Inhibition (CCF-STTG1) [%] | Percent Inhibition (CW-2) [%] | Percent Inhibition (ChaGo-K-1) [%] | Percent Inhibition (Colo 205) [%] | Percent Inhibition (HCC1395) [%] | Percent Inhibition (HCC1569) [%] | Percent Inhibition (HCC1599) [%] | Percent Inhibition (HCC1937) [%] | Percent Inhibition (HEC-1-A) [%] | Percent Inhibition (HGC-27) [%] | Percent Inhibition (HPAF-II) [%] | Percent Inhibition (HT-1197) [%] | Percent Inhibition (J82) [%] | further results
CC(C)=CCc1c(O)cc2oc3ccc(O)cc3c(=O)c2c1O [Ge-1] | 54 | 34 | 30 | 20 | 19 | 32 | 9 | 43 | 62 | 44 | 29 | 55 | 52 | 54 | 11 | 26 | 54 | 28 | 50 | 38 | Percent Inhibition (M059J): 24%; Percent Inhibition (MSTO-211-H): 44%; Percent Inhibition (NCI-H1623): 9%; Percent Inhibition (NCI-H1694): 49%; Percent Inhibition (NCI-H1770): 13%; Percent Inhibition (NCI-H2347): 32%; Percent Inhibition (NCI-H2405): 7%; Percent Inhibition (NCI-H28): 23%; Percent Inhibition (NCI-H524): 42%; Percent Inhibition (Panc 03.27): 43%; Percent Inhibition (RL95): 37%; Percent Inhibition (SW13): 57%; Percent Inhibition (T47D): 45%; Percent Inhibition (T98G): 46%; Percent Inhibition (TCCSUP): 28%; Percent Inhibition (ZR-75-30): 81%
CC(C)=CCc1c(O)cc2oc3cc(O)c(O)c(CC=C(C)C)c3c(=O)c2c1O [Ge9] | 98 | 96 | 97 | 97 | 99 | 81 | 99 | 99 | 99 | 97 | 98 | 98 | 97 | 95 | 98 | 95 | 97 | 96 | 97 | 97 | Percent Inhibition (M059J): -17%; Percent Inhibition (MSTO-211-H): 98%; Percent Inhibition (NCI-H1623): 91%; Percent Inhibition (NCI-H1694): 99%; Percent Inhibition (NCI-H1770): 98%; Percent Inhibition (NCI-H2347): 89%; Percent Inhibition (NCI-H2405): 96%; Percent Inhibition (NCI-H28): 97%; Percent Inhibition (NCI-H524): 97%; Percent Inhibition (Panc 03.27): 97%; Percent Inhibition (RL95): 98%; Percent Inhibition (SW13): -3%; Percent Inhibition (T47D): 94%; Percent Inhibition (T98G): 98%; Percent Inhibition (TCCSUP): 99%; Percent Inhibition (ZR-75-30): 99%
COc1cc(O)c2c(=O)c3cc4c(c(O)c3oc2c1CC=C(C)C)OC(C)(C)C=C4 [gl-12] | 11 | 3 | -2 | -2 | 5 | 7 | 25 | 16 | 28 | 38 | 10 | 22 | 19 | 52 | -7 | 13 | 34 | 21 | 20 | 17 | Percent Inhibition (M059J): 27%; Percent Inhibition (MSTO-211-H): -5%; Percent Inhibition (NCI-H1623): 5%; Percent Inhibition (NCI-H1694): 28%; Percent Inhibition (NCI-H1770): 34%; Percent Inhibition (NCI-H2347): 9%; Percent Inhibition (NCI-H2405): 11%; Percent Inhibition (NCI-H28): 2%; Percent Inhibition (NCI-H524): -2%; Percent Inhibition (Panc 03.27): 24%; Percent Inhibition (RL95): 23%; Percent Inhibition (SW13): -2%; Percent Inhibition (T47D): 21%; Percent Inhibition (T98G): 28%; Percent Inhibition (TCCSUP): 11%; Percent Inhibition (ZR-75-30): 54%
O=c1c2cc(O)ccc2oc2cccc(O)c12 [gl-20] | 38 | 13 | 50 | 46 | -3 | 58 | 76 | 49 | 47 | 57 | 3 | 74 | 57 | 83 | 62 | 41 | 69 | 19 | 77 | 60 | Percent Inhibition (M059J): 63%; Percent Inhibition (MSTO-211-H): 59%; Percent Inhibition (NCI-H1623): -13%; Percent Inhibition (NCI-H1694): 86%; Percent Inhibition (NCI-H1770): -4%; Percent Inhibition (NCI-H2347): 48%; Percent Inhibition (NCI-H2405): -5%; Percent Inhibition (NCI-H28): 24%; Percent Inhibition (NCI-H524): 91%; Percent Inhibition (Panc 03.27): 52%; Percent Inhibition (RL95): 67%; Percent Inhibition (SW13): 33%; Percent Inhibition (T47D): 39%; Percent Inhibition (T98G): 73%; Percent Inhibition (TCCSUP): 67%; Percent Inhibition (ZR-75-30): 87%
C=C(C)C(O)Cc1c(O)cc2oc3cc(O)c(O)c(CC=C(C)C)c3c(=O)c2c1O (stereo not drawn) [bn-17, Bannaxanthone B] | 54 | 19 | 27 | 34 | 57 | 39 | 71 | 43 | 68 | 73 | 57 | 83 | 51 | 84 | 58 | 46 | 62 | 14 | 44 | 52 | Percent Inhibition (M059J): 48%; Percent Inhibition (MSTO-211-H): 70%; Percent Inhibition (NCI-H1623): 20%; Percent Inhibition (NCI-H1694): 96%; Percent Inhibition (NCI-H1770): 12%; Percent Inhibition (NCI-H2347): 23%; Percent Inhibition (NCI-H2405): 7%; Percent Inhibition (NCI-H28): 69%; Percent Inhibition (NCI-H524): -19%; Percent Inhibition (Panc 03.27): 44%; Percent Inhibition (RL95): 45%; Percent Inhibition (SW13): 52%; Percent Inhibition (T47D): 45%; Percent Inhibition (T98G): 94%; Percent Inhibition (TCCSUP): 79%; Percent Inhibition (ZR-75-30): 81%
